Common to all, as to assay: NCI-60 cell line screen, 48 h
For experiment [1], the system named is DLD-1 colon.
In experiment [2] the test system is DMS 114 small cell lung.
The subject of experiment [3] is DMS 273 small cell lung.
The subject of experiment [4] is KM20L2 colon.
For experiment [5], the system named is M19-MEL melanoma.
For experiment [6], the system named is SNB-78 CNS.
The test system of experiment [7] is LXFL 529 NSCLC.
Experiment [8] deals with RXF-631 renal.
In experiment [9] the test system is BT-549 breast.
For experiment [10], the system named is DU-145 prostate.
The test system of experiment [11] is NCI/ADR-RES ovarian.

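All cell lines were grown in 96-well plates and treated with compound for 48 hours. GI50 is the concentration that inhibits growth by half. At the TGI there is no net growth.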

Regarding `NC1=Nc2ccccc2Sc2ccccc21`, the TGI in [1], in experiment [2], in experiment [3], in experiment [4], in experiment [5] and in experiment [6] was more than 100 µM each time.

For the compound `O=C(N/C(=C\c1ccc(F)cc1)c1nc2ccccc2[nH]1)c1ccccc1`, the TGI in experiment [1], in experiment [2], in experiment [4], in experiment [7], in experiment [5] and in experiment [8] was more than 100 µM in each case. The TGI in experiment [6] was more than 100 µM.

Consider `Cc1ccc([N+]2=NC(c3ccccc3)=NN(c3ccccc3)C2)cc1`, for which the TGI in [1], in experiment [2], in experiment [3], in [4], in experiment [7] and in experiment [5] was more than 100 µM throughout.

For `C=CCCC(=O)CC(=O)OCc1ccccc1`, the TGI in experiment [1], in experiment [2], in experiment [3], in [4], in experiment [7] and in [5] was more than 100 µM throughout. Moreover, the TGI in experiment [8] and in [6] was more than 100 µM each time.

In the case of `CC1(C2CCC3(C)C(C2)C3Sc2ccccc2)OCCO1` (stereo not drawn), the TGI is 92.2 µM in experiment [1]; 47.1 µM in [2]; 60 µM in experiment [3]; more than 100 µM in experiment [7]; 40.6 µM in [5]; more than 100 µM in experiment [6].

Regarding `CCOc1ccccc1NC(=O)C1=C(C)NC(C)=C(C(=O)Nc2ccccc2OCC)C1c1cccc([N+](=O)[O-])c1`, the TGI in [1], in experiment [2], in [3], in experiment [4], in experiment [7] and in experiment [5] was more than 100 µM throughout. For the same compound, the TGI in experiment [6] was more than 100 µM.

As for `COC(=O)C(C)Oc1ccc(O)cc1` (stereo not drawn), the TGI in [1] is more than 100 µM; in experiment [2] it was 34.7 µM; in experiment [3] it was more than 100 µM; in [4] it was more than 100 µM; in [7], more than 100 µM; in experiment [5], more than 100 µM. Also, the TGI in experiment [8] and in [6] was more than 100 µM each time.

Take `COc1cc(CCc2ccncc2)cc(OC)c1OC`: the TGI in experiment [1], in [2], in [3], in [4], in experiment [7] and in [5] was more than 100 µM throughout. Besides, the TGI in experiment [8] and in experiment [6] was more than 100 µM throughout.

`N#CC(C#N)C(c1ccccc1)c1ccccc1`: the TGI in [1], in experiment [2], in experiment [3], in [4], in [7] and in experiment [8] was more than 100 µM throughout. Besides, in [6], the TGI is more than 100 µM.

In the case of `CCOC(=O)C(=O)Nc1nc2ccc(C)cc2s1`, the TGI in experiment [1], in experiment [2], in [3], in experiment [4], in experiment [7] and in experiment [5] was more than 100 µM throughout. Moreover, the TGI in [8] and in experiment [6] was more than 100 µM throughout.

Turning to `COC1CC(n2cc(F)c(N)nc2=O)OC1CO` (stereo not drawn), the TGI in experiment [1], in experiment [2], in experiment [3], in experiment [4], in experiment [7] and in experiment [8] was more than 100 µM each time. Further, the TGI in experiment [6] was more than 100 µM.

On to `CN1C/C(=C\c2ccc(C(=O)O)cc2)C(=O)/C(=C/c2ccc(C(=O)O)cc2)C1`, for which the TGI in experiment [1], in experiment [2], in experiment [3], in experiment [4], in [7] and in experiment [5] was more than 100 µM throughout. The TGI in experiment [8] and in [6] was more than 100 µM throughout.

For `Cc1nc(-n2nc(-c3ccccc3)cc2-c2ccccc2)sc1C(=O)/C=C/c1cccc([N+](=O)[O-])c1`, the TGI was 24.3 µM in [1]; 34.3 µM in experiment [2]; 83.1 µM in experiment [3]; 40.8 µM in experiment [4]; 30.4 µM in [5]; more than 100 µM in [6].

Consider `O=C1C(=Cc2ccc(F)cc2)C(=O)c2ccccc21`, for which the TGI in experiment [1], in [2], in [3], in experiment [4], in experiment [7] and in [5] was more than 100 µM in each case. Further, the TGI in [8] is more than 100 µM.

With `COC(=O)C(=O)C(C#N)c1c(Cl)cccc1Cl` (stereo not drawn), the TGI in [1], in [2], in [3], in [4], in experiment [7] and in experiment [5] was more than 100 µM each time. The TGI in experiment [8] and in experiment [6] was more than 100 µM throughout.

Consider `CCN1CCC(O)(/C=C/c2ccccc2)C(C(=O)/C=C/c2ccccc2)C1` (stereo not drawn), for which the TGI stood at 8.22 µM in experiment [1]; 5.6 µM in experiment [2]; 3.27 µM in [3]; 7.22 µM in experiment [4]; 3.56 µM in [7]; 4.18 µM in experiment [5]. Besides, the TGI in experiment [8] is 15 µM; in experiment [6], 11.5 µM.

`C/C(=N\Nc1n[nH]c(=S)n1N)c1c(O)cc(C)oc1=O`: the TGI in experiment [1], in [4], in [7], in experiment [5] and in experiment [6] was more than 100 µM in each case.

With `COc1cc([C@@H]2c3cc4c(cc3[C@@H](NCc3cccc(F)c3)C3COC(=O)[C@@H]32)OCO4)cc(OC)c1O` (stereo partly drawn), the TGI in experiment [1] is more than 65 µM; in experiment [2] it was 31.6 µM; in experiment [3], 14.3 µM; in [4], 21.2 µM; in experiment [7], more than 65 µM; in [6], 57.7 µM.

As for `CC/C(C)=C1\CCC(CN(C)C)C1=O` (stereo not drawn), the TGI was 30.5 µM in [1]; 41.8 µM in experiment [2]; 33.3 µM in experiment [3]; 47.5 µM in experiment [4]; 29.9 µM in [7]; 32.6 µM in experiment [5]. In addition, the TGI in experiment [8] came out at 34.4 µM; in experiment [6], 54.8 µM.

Take `Oc1ccc(O)c(-n2cccn2)c1-n1cccn1`: the TGI in experiment [1], in [2], in experiment [3], in [4], in experiment [7] and in experiment [5] was more than 100 µM in each case. Moreover, in experiment [6], the TGI was more than 100 µM.

Consider `N#CNC1=NCCC(=O)N1CCc1c[nH]c2ccccc12`, for which the TGI in [1], in experiment [2], in experiment [3], in experiment [7], in experiment [5] and in experiment [6] was more than 100 µM each time.

`CC(CC(=O)Nc1ccc(NC(=O)CC(C)N=NC(N)=O)cc1)N=NC(N)=O` (stereo not drawn): the TGI in [1] was more than 100 µM; in experiment [2] it was 38.2 µM; in experiment [3] it was more than 100 µM; in experiment [4], more than 100 µM; in experiment [7], more than 100 µM; in experiment [5] it was more than 100 µM.

Take `CCCCOP1(=O)CC(C)=C(Cl)C(C)(OC)C1` (stereo not drawn): the TGI in experiment [1], in experiment [3], in experiment [4], in experiment [7], in [5] and in [6] was more than 100 µM throughout.

For `O=C(CCc1cc(-c2ccc(F)cc2)n[nH]1)N(Cc1ccccc1)Cc1ccccc1`, the TGI in [2], in experiment [3], in experiment [4], in experiment [7], in experiment [5] and in [6] was more than 100 µM each time.

As for `Cc1ccc(C)c(NC(=O)C(=O)Nn2c(=S)[nH]c3ccccc3c2=O)c1`, the TGI in experiment [1], in [2], in experiment [3], in [4], in experiment [7] and in experiment [8] was more than 100 µM throughout. The compound further showed a TGI in [6] of more than 100 µM.

As to `COc1cc2c(=O)n(CC3CCCCC3)c3c4cc[nH]c4ncc3c2cc1OC`, the GI50 in [9] is 0.807 µM; in experiment [10], 4.96 µM; in experiment [11] it was 3.74 µM. For the same compound, the TGI in experiment [9] was found to be 14.7 µM; in [10], 19.6 µM; in experiment [11], 34.5 µM.

As for `CC(=O)[O][Hg][c]1s[c]([Hg][O]C(C)=O)[c]([Hg][O]C(C)=O)[c]1[Hg][O]C(C)=O`, the GI50 in experiment [3] was 3.6 µM; in experiment [4] it was 14.3 µM; in experiment [7], 1.79 µM; in [5], 3.99 µM; in [6] it was 1.42 µM. The TGI in experiment [3] was more than 100 µM; in experiment [4] it was 37.3 µM; in experiment [7] it was 9.72 µM; in [5] it was more than 100 µM.

Consider `CC1=CC(=O)N2C(OC[C@@H]2c2ccccc2)O1` (stereo partly drawn), for which the TGI in experiment [1], in experiment [4], in experiment [7] and in experiment [5] was more than 100 µM in each case.

Turning to `NC(=O)c1nc(-c2ccc(Cl)c(Cl)c2)nc2ccccc12`, the TGI is more than 100 µM in experiment [1]; more than 100 µM in [2]; more than 24.9 µM in experiment [3]; more than 100 µM in [4]; more than 100 µM in experiment [7]; more than 100 µM in experiment [5]. The compound also showed a TGI in experiment [6] of more than 100 µM.

For `C[C@H]1CCC2C(OC(=O)[C@@H]2CN(C)C)[C@]2(C)C(=O)C=CC12O` (stereo partly drawn), the TGI in experiment [9] came out at 25.2 µM; in experiment [1], 11 µM; in experiment [2] it was 11.6 µM; in [3], 18.8 µM; in experiment [10], 23.2 µM; in experiment [4], 17.7 µM. Moreover, the TGI worked out at 12.4 µM in [7], 20.3 µM in [5] and 3.11 µM in [8].

As for `C=CCO[C@H]1CC[C@@]2(C)C(CC[C@]3(C)C2CC=C2[C@@H]4[C@@H](C)C(C)CC[C@]4(C(=O)O)CCC23C)C1(C)C` (stereo partly drawn), the TGI in experiment [1] was found to be 32.1 µM; in [2] it was 32.1 µM; in [4], 33.2 µM; in experiment [7], 26.9 µM; in experiment [5] it was 35.7 µM; in experiment [8] it was 28.9 µM. This compound also showed a TGI in experiment [6] of 35.4 µM.

`CNC(=O)c1cc(-c2ccc(F)cc2)cc(-c2ccc(S(=O)(=O)N3CCCC3)cc2)c1N`: the GI50 in experiment [9] was more than 21.2 µM; in experiment [10], more than 25 µM; in [11] it was 16.2 µM. In addition, the TGI in experiment [9], in experiment [10] and in experiment [11] was more than 25 µM each time.

Consider `Cn1cc(-c2csc(-c3cn(C(=O)OC(C)(C)C)c4ccccc34)n2)c2cccnc21`, for which the GI50 in experiment [9] is 6.87 µM; in experiment [10] it was 5.17 µM; in experiment [11] it was 2.33 µM. The TGI in experiment [9] was found to be 21.2 µM; in [10], 21.6 µM; in experiment [11], 14.4 µM.

As to `CS(=O)(=O)CCNCc1ccoc1-c1ccc2ncnc(Nc3ccc(OCc4ccccc4)cc3)c2c1`, the GI50 in experiment [9], in [10] and in [11] was more than 25 µM throughout. In addition, the TGI in experiment [9], in experiment [10] and in experiment [11] was more than 25 µM in each case.

Take `CC[C@@H](C(=O)[C@@H](C)[C@@H](O)[C@H](C)[C@@H]1O[C@@H]([C@@H](CC)C(=O)O)CC[C@@H]1C)[C@H]1O[C@]2(C=C[C@@H](O)[C@]3(CC[C@@](C)([C@H]4CC[C@](O)(CC)[C@H](C)O4)O3)O2)[C@H](C)C[C@@H]1C`: the GI50 in experiment [9] was 0.248 µM; in experiment [10], 1.71 µM; in [11], 1.32 µM. The TGI in experiment [9] came out at 4.33 µM; in [10] it was 28.5 µM; in experiment [11] it was 51.4 µM.

The record behind these values is PubChem BioAssay (NCI).
